Data on 16 compounds can be found in ChEMBL document CHEMBL6074680, “Structure-Based Discovery of a Series of Covalent, Orally Bioavailable, and Selective BFL1 Inhibitors” (J Med Chem, 2024).

In general, IC50 refers to the concentration at which inhibition is half-maximal. A low value points to higher potency. Broadly, the EC50 is the concentration at which the effect is half-maximal. In general, logD refers to the decadic logarithm of the distribution of all forms, ionised or not, between an organic phase and buffer at a given pH. Low values mean lower lipophilicity, high ones higher lipophilicity. One may read the half-life as the time needed for the level to fall by half in the phase considered. A high value points to slow decline. The fraction unbound is free concentration divided by total concentration. Usually Papp A→B stands for the apparent permeability from the apical to the basolateral side of a cell layer.

For one data set, the target named is T1, BCL2A1/BID (Homo sapiens, UniProt Q16548).
T1 sequence (Q16548 whole entry): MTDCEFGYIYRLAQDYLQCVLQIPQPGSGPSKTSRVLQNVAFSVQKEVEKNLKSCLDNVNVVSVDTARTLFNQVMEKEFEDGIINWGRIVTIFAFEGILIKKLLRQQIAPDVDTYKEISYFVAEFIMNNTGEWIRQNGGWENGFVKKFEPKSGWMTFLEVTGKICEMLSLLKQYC
T1 sequence (P55957 whole entry): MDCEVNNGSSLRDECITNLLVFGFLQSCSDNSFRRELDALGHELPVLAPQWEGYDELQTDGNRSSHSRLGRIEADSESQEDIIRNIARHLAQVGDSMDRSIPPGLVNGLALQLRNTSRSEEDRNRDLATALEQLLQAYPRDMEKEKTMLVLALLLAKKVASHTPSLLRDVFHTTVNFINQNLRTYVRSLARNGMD
Briefly: Inhibition of BFL-1/ BH3 (unknown origin) interaction incubated for 2 hrs by TR-FRET assay. It counts as protein assay.

For data set [1], the system named is SU-DHL-1. As to the kind of experiment: Induction of apoptosis in human SU-DHL-1 cells assessed as caspase activation in presence of AZD5991 incubated for 6 hrs by caspaseGlo 3/7 reagent based assay. It counts as functional, cell-based. Particulars: SU-DHL-1, 6 h.
Data set [2] is described as follows: Metabolic stability in rat hepatocytes assessed as intrinsic clearance measured per 10^6 cells. It counts as ADME, cell-based, Hepatocyte. Particulars: rat hepatocytes, read-out: CLH.
A short description of data set [3]: Lipophilicity, log D of compound in 1-octanol at pH 7.4 incubated for 4 hrs by HPLC-UV analysis. It counts as physicochemical. Conditions: 1-octanol / aqueous phase at pH 7.4, pH 7.4.
Data set [4] concerns the target Induced myeloid leukemia cell differentiation protein Mcl-1 (Homo sapiens, UniProt Q07820). As to the kind of experiment: Inhibition of MCL1 (unknown origin) by FRET assay.
Data set [5] is described as follows: Metabolic stability in human hepatocytes assessed as intrinsic clearance measured per 10^6 cells. Particulars: read-out: CLH. It counts as ADME, cell-based, Hepatocyte.
A short description of data set [6]: Metabolic stability in mouse hepatocytes assessed as intrinsic clearance measured per 10^6 cells. It counts as ADME, cell-based, Hepatocyte. Conditions: read-out: CLH.
Data set [7] deals with SU-DHL-1. Briefly: Antiproliferative activity against human SU-DHL-1 cells assessed as cell viability incubated for 24 hrs by celltiter-glo assay. It counts as functional, cell-based. Conditions: SU-DHL-1, 24 h. For orientation: ATP-based viability assays read luminescence as a measure of living cells.
The target in another data set is Bcl-2-like protein 1 (Homo sapiens, UniProt Q07817). As to the kind of experiment: Inhibition of Bcl-Xl (unknown origin) by FRET assay.
The nature of data set [8]: Volume of distribution at steady state in CD-1 mouse at 1 mg/kg, po or 0.5 mg/kg, iv measured upto 24 hrs by LC-MS/MS analysis. It counts as ADME, organism-based. Conditions: in vivo.
The nature of data set [9]: Half life in CD-1 mouse at 1 mg/kg, po or 0.5 mg/kg, iv measured upto 24 hrs by LC-MS/MS analysis. It counts as ADME, organism-based. Particulars: in vivo.
Data set [10] in a line: Plasma protein binding in mouse assessed as unbound fraction. It counts as ADME, cell-free.
The target in data set [11] is Apoptosis regulator Bcl-2 (Homo sapiens, UniProt P10415). Briefly: Inhibition of BCL2 (unknown origin) by FRET assay.
Data set [12] in a line: Apparent permeability across apical to basolateral side in human Caco-2 cells measured upto 120 mins by LC-MS/MS analysis. It counts as ADME, cell-based. (In general: Passage across Caco-2 layers is used to estimate intestinal permeability.)

Chain of Induced myeloid leukemia cell differentiation protein Mcl-1 (Q07820 whole entry): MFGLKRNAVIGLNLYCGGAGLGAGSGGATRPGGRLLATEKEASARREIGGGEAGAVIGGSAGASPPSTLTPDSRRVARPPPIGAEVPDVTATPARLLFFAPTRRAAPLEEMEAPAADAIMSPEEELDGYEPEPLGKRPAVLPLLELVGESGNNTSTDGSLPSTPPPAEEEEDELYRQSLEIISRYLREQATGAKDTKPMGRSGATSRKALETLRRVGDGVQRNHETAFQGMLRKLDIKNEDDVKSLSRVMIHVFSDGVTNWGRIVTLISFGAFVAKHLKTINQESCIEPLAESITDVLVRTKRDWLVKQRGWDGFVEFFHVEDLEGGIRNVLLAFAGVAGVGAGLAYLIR
Chain of Bcl-2-like protein 1 (Q07817 whole entry): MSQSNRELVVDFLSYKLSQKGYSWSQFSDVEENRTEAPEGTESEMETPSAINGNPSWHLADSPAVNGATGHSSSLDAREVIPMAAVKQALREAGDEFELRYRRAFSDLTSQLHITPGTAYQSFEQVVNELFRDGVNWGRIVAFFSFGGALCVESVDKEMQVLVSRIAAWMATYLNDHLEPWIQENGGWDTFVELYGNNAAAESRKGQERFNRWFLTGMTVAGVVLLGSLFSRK
Chain of Apoptosis regulator Bcl-2 (P10415 whole entry): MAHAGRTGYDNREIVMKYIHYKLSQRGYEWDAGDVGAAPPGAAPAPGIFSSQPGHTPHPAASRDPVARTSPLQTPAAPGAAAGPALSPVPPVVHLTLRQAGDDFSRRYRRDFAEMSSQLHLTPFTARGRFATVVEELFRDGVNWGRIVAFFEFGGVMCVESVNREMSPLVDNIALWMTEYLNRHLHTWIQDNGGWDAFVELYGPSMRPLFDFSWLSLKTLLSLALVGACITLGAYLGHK

At BCL2A1/BID, `C=CC(=O)N(c1ccc(O[C@@H]2CC[C@@H](NC(=O)NCCN(C)C)C2)cc1)[C@@H](C)c1ccc(Cl)cc1` returned an IC50 of 0.05 µM. Also, the EC50 with SU-DHL-1 [1] is 0.5 µM.
On BCL2A1/BID, `C=CC(=O)N(c1ccc(O[C@@H]2CC[C@@H](NC(=O)N[C@@H]3CCS(=O)(=O)C3)C2)c(F)c1)[C@@H](C)c1ccc(C(F)(F)F)c(C#N)c1` yielded an IC50 of 0.087 µM. The EC50 with SU-DHL-1 [1] worked out at 0.91 µM. Besides, the hepatocyte CLint in [2] is 262 µL/min/1e6 cells. The compound also showed a logD at 4 h in data set [3] of 3.2.
With `C=CC(=O)N(c1ccc(O[C@@H]2CC[C@@H](NC(=O)NC3CCS(=O)(=O)C3)C2)cc1)[C@@H](C)c1ccc(Cl)cc1` (mixture of isomers), at BCL2A1/BID, 0.04 µM corresponded to half-maximal inhibition (IC50). Besides, in the data set with SU-DHL-1 [1], the EC50 is 0.11 µM.
Take `C=CC(=O)N(c1ccc(O[C@@H]2CC[C@@H](N)C2)cc1)[C@@H](CNS(C)(=O)=O)c1ccc(Cl)cc1`: the IC50 on BCL2A1/BID was 0.031 µM; in data set [4], above 100 µM. Also, the EC50 in the data set with SU-DHL-1 [1] worked out at 0.35 µM.
In the case of `C=CC(=O)N(c1ccc(O[C@@H]2CC[C@@H](N)C2)cc1F)[C@@H](C)c1ccc(Cl)cc1`, the IC50 on BCL2A1/BID was determined as 0.048 µM. Further, the EC50 in the data set with SU-DHL-1 [1] stood at 0.41 µM.
In turn, `C=CC(=O)N(c1ccc(O[C@@H]2CC[C@@H](N)C2)c(C)c1)[C@@H](C)c1ccc(Cl)cc1` registered an IC50 at BCL2A1/BID of 0.077 µM. Besides, the EC50 in the data set with SU-DHL-1 [1] is 0.65 µM.
Take `C=CC(=O)N(c1ccc(O[C@@H]2CC[C@@H](N)C2)cc1)[C@@H](CC(C)(C)O)c1ccc(Cl)cc1`: the IC50 was 0.033 µM at BCL2A1/BID and above 100 µM in data set [4]. The EC50 with SU-DHL-1 [1] turned out to be 0.52 µM.
On the same counts, the results for `C=CC(=O)N(c1ccc(O[C@@H]2CC[C@@H](N)C2)cc1)[C@@H](CC(N)=O)c1ccc(Cl)cc1` are 0.043 µM, above 100 µM and 0.49 µM.
Consider `C=CC(=O)N(c1ccc(O[C@@H]2CC[C@@H](N)C2)c(F)c1)[C@@H](CC(C)(C)O)c1ccc(Cl)cc1`, for which it took 0.011 µM to reach half-maximal inhibition against BCL2A1/BID (IC50). For the same compound, the values for the EC50 in the data set on SU-DHL-1 [1] and in the data set on SU-DHL-1 [7] were 0.042 µM and 0.058 µM, respectively. Besides, the results for the hepatocyte CLint in data set [5], in data set [2] and in [6] were 5.9 µL/min/1e6 cells, 7.3 µL/min/1e6 cells and 15 µL/min/1e6 cells, respectively. The compound further yielded a logD at 4 h in data set [3] of 1.5.
Turning to `C[C@@H](c1ccc(Cl)cc1)N(C(=O)/C=C/CN(C)C)c1ccc(O[C@@H]2CC[C@@H](NC(=O)NC3CS(=O)(=O)C3)C2)c(F)c1`, the 50% inhibitory concentration (IC50) at Bcl-2-like protein 1 is above 30 µM; at BCL2A1/BID, 0.01 µM; in [11], above 30 µM. In [8], this compound returned a Vdss of 4.6 L/kg. In data set [9], this compound gave a half-life of 2.7 h. The EC50 with SU-DHL-1 [1] and with SU-DHL-1 [7] was 0.11 µM each time. Also, the hepatocyte CLint in [5] amounted to 2.6 µL/min/1e6 cells; in [6], 23 µL/min/1e6 cells. The fraction unbound in data set [10] was 0.085. Besides, the logD at 4 h in data set [3] was determined as 2.7. Besides, in data set [12], the Papp A→B at 2 h was below 11 ×10⁻⁶ cm/s.
As to `C=CC(=O)N(c1ccc(O[C@@H]2CC[C@@H](N)C2)cc1)[C@@H](CCNS(C)(=O)=O)c1ccc(Cl)cc1`, the IC50 against BCL2A1/BID was determined as 0.017 µM. Besides, the EC50 with SU-DHL-1 [1] stood at 0.09 µM; in the data set with SU-DHL-1 [7] it was 0.13 µM.
The matching figures for `C=CC(=O)N(c1ccc(O[C@@H]2CC[C@@H](N)C2)cc1)[C@@H](C[C@H](C)O)c1ccc(Cl)cc1`: 0.018 µM, 0.14 µM and 0.17 µM.
`C=CC(=O)N(c1ccc(O[C@@H]2CC[C@@H](N)C2)cc1)[C@@H](C)c1ccc(Cl)cc1`: the 50% effective concentration (EC50) in the data set with SU-DHL-1 [1] came out at 1.1 µM.
On to `C=CC(=O)N(c1ccc(O[C@@H]2CC[C@@H](N)C2)cc1)[C@@H](COC)c1ccc(Cl)cc1`, for which, in the data set with SU-DHL-1 [1], the EC50 is 0.45 µM. In data set [4], this compound showed an IC50 above 100 µM.
In turn, `C=CC(=O)N(c1ccc(O[C@@H]2CC[C@@H](NC(=O)N[C@@H]3CCS(=O)(=O)C3)C2)c(F)c1)[C@@H](CC(N)=O)c1ccc(Cl)cc1` gave an IC50 against BCL2A1/BID of 0.005 µM. Moreover, the EC50 in the data set on SU-DHL-1 [1] is 0.079 µM. Further, the figures for the hepatocyte CLint in [5], in [2] and in [6] were 25 µL/min/1e6 cells, 74 µL/min/1e6 cells and 45 µL/min/1e6 cells, respectively. Besides, in [3], the log distribution coefficient (logD) at 4 h is 2.2.
Take `C[C@@H](c1ccc(Cl)cc1)N(C(=O)/C=C/CN(C)C)c1ccc(O[C@@H]2CC[C@@H](NC(=O)N[C@@H]3CCS(=O)(=O)C3)C2)c(F)c1`: the IC50 was above 30 µM on Bcl-2-like protein 1, 0.0085 µM against BCL2A1/BID and above 30 µM in data set [11]. Moreover, the values for the EC50 in the data set on SU-DHL-1 [1] and in the data set with SU-DHL-1 [7] were 0.052 µM and 0.11 µM, respectively. The hepatocyte CLint in data set [5] is 1.5 µL/min/1e6 cells; in data set [2] it was 28 µL/min/1e6 cells; in data set [6] it was 17 µL/min/1e6 cells. Besides, the logD at 4 h in data set [3] amounted to 2.5.
